This note sets out measurements from US7160916B2, “Method of increasing bone density or treating osteoporosis” (Yung Shin Pharmaceutical Ind. Co., Ltd., priority 2003, dated 2007).

Test [1] relates to ovariectomized adult female rats. Briefly: Ovariectomy-induced bone loss: bone size, BMD, BMC, bone volume. In kind it is in vivo, rat. The text has this: Bone histomorphometry: After formalin fixation of tibia was completed, the tibiae were then decalcified in 0.5 N hydrochloric acid, dehydrated in an ascending series of ethanol solution and acetone, and embedded in paraffin. Serial sections (5 μm) were cut longitudinally and stained with Mayer's hematoxylin-eosin solution (Yang et al. (1993) Calcif Tissue Int 52:57–61). Images of the growth plate and proximal tibia were photographed using a photoMicroGraphic Digitize integrate System (MGDS; Total-Integra Technology Co., Ltd., Taipei, Taiwan). Bone volume measurements were performed on the whole secondary spongiosa, which is located under the primary spongiosa and characterized by a network of larger trabeculae. Bone volumes were calculated using an image analysis software. All measurements were done in a single-blind fashion. Ovariectomy and cut of sciatic nerve: Ovariectomy and cut of sciatic nerve were performed in adult female and male rats (3 month-old), respectively. After surgery, the rats were injected with Indazole 1 (i.p., 1 mg/Kg) or a vehicle daily for 4 weeks. On the day following the last injection, the rats were sacrificed and their tibia and femur were removed. Tibia and femur Preparation: At the end of the program, the rats were sacrificed by decapitation. The tibiae were removed, cleaned of soft tissue, and the length of the tibia was measured with a precision caliper (±0.05 mm) as described by Weinreb et al. (1991) J Bone Miner Res 6:725–731. The tibiae were fixed in 10% formaldehyde for 48 h at 4° C. for bone histomorphometry analysis. Some of the tibia and femur were also removed and kept at −20° C. for bone mineral analysis. Analysis of bone mineral density (BMD) and content (BMC): BMD and BMC of the tibia and femur were measured with a dual-energy X-ray absorptiometer (DEXA, XR-26; Norland, Fort Atkinson, Wis.). The mode adapted to the measurements of small subjects was adopted. A coefficient of variation of 0.7% was calculated from daily measurements of BMD on a lumbar phantom for more than 1 year (Yang et al. (1998) Calcif Tissue Int 63:86–90). The tibia and femur were thawed to room temperature before bone mineral analysis. The whole tibiae and femur were scanned and BMD and BMC were measured by absorptiometer. Prevention of bone loss: Ovariectomy (OVX) was performed in adult female rats (n=28). After ovariectomy, one group of the ovariectomized rats (n=16) were injected with Indazole 1 (i.p., 1 mg/kg/day), and the other group (n=12) were not. 15 un-ovarietctomized adult female rats were used as sham-operated controls and were not injected with Indazole 1. […] A 60% reduction in bone volume was observed 4 weeks after ovariectomy. […] The bone volume reached 76% of sham-operated controls.

For test [2], the system named is Primary osteoblast cells. Put plainly: von Kossa staining, bone nodule formation. The class given is cell-based, rat. Particulars: treatment for 2 weeks. Here is the method: Primary osteoblast cultures: Primary osteoblast cells were prepared from calvaria of 18-day-old fetal Sprague-Dawley (SD) rats according to the following method: Pregnant rats were put in anesthesia using intraperitoneal injection of trichloroacetaldehyde (200 mg/kg). The calvaria of the fetal rats were then dissected with aseptic technique. Soft tissues were removed under a dissecting microscope. The calvaria were divided into small pieces and then treated with 0.1% collagenase (Sigma Chemical, St. Louis, Mo.) solution for 10 minutes at 37° C. The cells released from the calvariae by two 20-minute sequential collagenase digestions were pooled and filtered through 70 μm nylon filters (Falcon, BD BioSciences, San Jose, Calif.). […]
von Kossa staining: Osteoblasts were cultured in DMEM containing 50 μg/ml vitamin C and 10 mM β-glycerophosphate for 2 weeks and the medium was changed every 3 days. […] The number of nodules formed per well was counted under a light microscope. Collagen synthesis was determined by measuring the 4-hydroxyproline content in cultured osteoblasts. […] After lyophilizing and reconstituting a lysate in distilled water, the amount of 4-hydroxyproline was determined by spectrophotometry at 550 nm as described by Berg (1982) Meth Enzymol. […]

Test [3] concerns osteoclasts. Put plainly: Assay of bone resorption of osteoclast. The class given is cell-based, rat. Particulars: 3-day incubation after removal of M-CSF and sRANKL, versus control. Here is the method:
Assay of bone resorption of osteoclast: Osteoclast precursors were isolated from rat long bones as mentioned above. The cells were re-suspended in a complete DMEM medium and plated into a calcium phosphate apatite-coated 24-well plate, OAAS (Oscotec, OCT USA Inc.) at 1×10^6 cells/0.5 ml/well. The cells were cultured for 5 days in the presence of M-CSF (20 ng/ml) plus sRANKL (50 ng/ml). Indazole 1 was injected daily for additional 3 days in the absence of M-CSF and sRANKL. Culture was terminated on day 8 and the remaining cells in the plate were lysed using 1 N NaOH. Five images per well were obtained using an inverted microscope (200×), and resorbed area was measured using an image analyzer. Local injection Male SD rats weighing 70–88 gm were used. Implantation of a cannula (22G) was done from the posteriolateral side into the proximal tibial metaphysis in both limbs of rats anesthetized with pentobarbital. The cannula had its outer end in the subcutaneous tissue. Indazole 1 was percutaneously injected through the cannula into the proximal tibia once/day for 1 week. The same concentration of DMSO diluted with normal saline was injected into the right side for comparison. On day 14, the rats were sacrificed and tibiae were fixed in 10% formaldehyde for 48 h at 4° C. The effect of Indazole 1 on resorption activity of osteoclasts was also examined. […]

The mark [4] stands for this setting: OVX rats, 1 mg/kg daily for 4 weeks.
Where [5] appears, read: OVX rats, i.p. 1 mg/kg daily for 1 month, mean ± S.E.

Marks after values point to notes of the source that are not given here.

Take `OCc1ccc(-c2nn(Cc3ccccc3)c3ccccc23)o1` [Indazole 1, 1-benzyl-3-(5′-hydroxymethyl-2′-furyl)-indazole]: in test [1] (setting [4]), the “bone volume relative to sham-operated controls” value is 76 % of sham-operated controls and the “loss of trabecular bone of tibia secondary spongiosa” value is given as “reduced loss of trabecular bone”. Besides, in test [1] (setting [5]), the “Femur BMC” value is reported as 0.281 ± 0.001^b, the “Femur BMD” value is 0.112 ± 0.002^b, the Femur length is on record as 3.55 ± 0.01 cm and the Femur weight amounted to 0.87 ± 0.01 g. In test [1] (setting [5]), the “Tibia BMC” value is 0.173 ± 0.011^b, the “Tibia BMD” value is 0.097 ± 0.002^b, the Tibia length came out at 4.05 ± 0.03 cm and the Tibia weight was determined as 0.67 ± 0.01 g. Further, in test [1] (daily injection, i.p. 1 mg/kg/day), the “ovariectomy-induced loss of BMD and BMC in both tibia and femur” value is given as “provided protection”. Also, the “number of bone nodules (von Kossa staining)” value in test [2] is given as “increased the number of bone nodules in a concentration-dependent manner”. In test [3], the “resorption activity of osteoclasts” value was “significantly inhibited”.
